# Read-outs that look alike come from different tables or passages of the source.
# Key:
# Assay in all cases: MTT cancer cell growth inhibition
# Type in all cases: cell-based
# [1] = tested on: DU145 (human prostate cancer cells); details: MTT
# Summary of the method: (§1)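 Absorbance at 570 nm of DMSO-dissolved formazan, formed during a 4 h MTT incubation, served as the viability measure. Cells had been exposed 72 h to drug at 10^−5–10^−10 M final; GI50 was calculated from these readings.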
# [2] = tested on: PANC-1 (Pac-1, human pancreatic cancer cells); details: MTT
# Summary of the method: as §1
# [3] = tested on: N-87 (human gastric cancer cells); details: MTT, 72 hours incubation, N-87 cells, read-out: GI50 N-87
# Summary of the method: as §1
# [4] = tested on: HT1080 (human fibrosarcoma cells); details: MTT
# Summary of the method: as §1
# [5] = tested on: MDA-MB-231 (breast cancer cells)
# Summary of the method: as §1
# [6] = tested on: SGC-7901 (human gastric cancer cells); details: MTT, 72 hours incubation, SGC-7901 cells, read-out: GI50 SGC-7901
# Summary of the method: as §1
# [7] = tested on: Hela (human cervical cancer cells); details: MTT
# Summary of the method: as §1
# [8] = tested on: Bel-7402 (human hepatoma cells); details: MTT, 72 hours incubation, Bel-7402 cells, read-out: GI50 Bel-7402
# Summary of the method: as §1
# [9] = tested on: Huh-7 (human hepatoma cells); details: MTT, 72 hours incubation, Huh-7 cells, read-out: GI50 Huh-7
# Summary of the method: as §1
# [10] = tested on: lncap (prostate cancer cells); details: MTT
# Summary of the method: as §1
# [11] = tested on: KBM-5 (human chronic myelogenous leukemia); details: MTT, 72 hours incubation, KBM-5 cells, read-out: GI50 KBM-5
# Summary of the method: as §1
# [12] = tested on: K562 (human leukemia cells); details: MTT, 72 hours incubation, K562 cells, read-out: GI50 K562
# Summary of the method: as §1
# [13] = tested on: BGC-823 (human gastric cancer cells); details: MTT
# Summary of the method: as §1
# [14] = tested on: U937 (human leukemia cells); details: MTT
# Summary of the method: as §1
# [15] = tested on: HCC827 (human non-small cell lung cancer cells); details: MTT, 72 hours incubation, HCC827 cells, read-out: GI50 HCC827
# Summary of the method: as §1
# [16] = Homo sapiens, DU-145, 72 h, 72 hours incubation, read-out: GI50 Du1
# [17] = Homo sapiens, PANC-1, 72 h, 72 hours incubation, read-out: GI50 PAN
# [18] = Homo sapiens, HT-1080, 72 h, 72 hours incubation, read-out: GI50 HT1
# [19] = Homo sapiens, MDA-MB-231, 72 h, read-out: GI50 MDA-MB-231, MTT, 72 hours incubation, MDA-MB-231 cells
# [20] = Homo sapiens, HeLa, 72 h, 72 hours incubation, read-out: GI50 Hela
# [21] = Homo sapiens, LNCaP, 72 h, 72 hours incubation, read-out: GI50 lnca
# [22] = Homo sapiens, BGC-823, 72 h, 72 hours incubation, read-out: GI50 BG
# [23] = Homo sapiens, U-937, 72 h, 72 hours incubation, read-out: GI50 U93
# [24] = Homo sapiens, DU-145, 72 h, DU145 cells, 72 hours incubation, read-out: GI50 Du1
# [25] = Homo sapiens, PANC-1, 72 h, PANC-1 cells, 72 hours incubation, read-out: GI50 PAN
# [26] = Homo sapiens, HT-1080, 72 h, HT1080 cells, 72 hours incubation, read-out: GI50 HT1
# [27] = Homo sapiens, HeLa, 72 h, Hela cells, 72 hours incubation, read-out: GI50 Hela
# [28] = Homo sapiens, LNCaP, 72 h, lncap cells, 72 hours incubation, read-out: GI50 lnca
# [29] = Homo sapiens, BGC-823, 72 h, BGC-823 cells, 72 hours incubation, read-out: GI50 BG
# [30] = Homo sapiens, U-937, 72 h, U937 cells, 72 hours incubation, read-out: GI50 U93
# [31] = Homo sapiens, DU-145, 72 h, 72 hours, present invention, read-out: GI50 Du145, a
# [32] = Homo sapiens, PANC-1, 72 h, 72 hours, present invention, read-out: GI50 PANC-1, a
# [33] = Homo sapiens, HT-1080, 72 h, 72 hours, present invention, read-out: GI50 HT1080, a
# [34] = Homo sapiens, HeLa, 72 h, 72 hours, present invention, read-out: GI50 Hela, a
# [35] = Homo sapiens, LNCaP, 72 h, 72 hours, present invention, read-out: GI50 lncap, a
# [36] = Homo sapiens, BGC-823, 72 h, 72 hours, present invention, read-out: GI50 BGC823, a
# [37] = Homo sapiens, U-937, 72 h, 72 hours, present invention, read-out: GI50 U937, a
SMILES,"GI50 [1, 16] [nM]","GI50 [2, 17] [nM]","GI50 ([3]; Homo sapiens, 72 h) [nM]","GI50 [4, 18] [nM]","GI50 [5, 19] [nM]","GI50 ([6]; Homo sapiens, SGC-7901, 72 h) [nM]","GI50 [7, 20] [nM]","GI50 ([8]; Homo sapiens, Bel-7402, 72 h) [nM]","GI50 ([9]; Homo sapiens, Huh-7, 72 h) [nM]","GI50 [10, 21] [nM]","GI50 ([11]; Homo sapiens, KBM5, 72 h) [nM]","GI50 ([12]; Homo sapiens, K562, 72 h) [nM]","GI50 [13, 22] [nM]","GI50 [14, 23] [nM]","GI50 ([15]; Homo sapiens, HCC827, 72 h) [nM]","GI50 [1, 24] [nM]","GI50 [2, 25] [nM]","GI50 [4, 26] [nM]","GI50 [7, 27] [nM]","GI50 [10, 28] [nM]",other results
C/C=C1\NC(=O)c2cccc(n2)CNC(=O)C[C@@H](/C=C/CCSC(C)=O)OC(=O)[C@H](Cc2ccccc2)NC1=O [Compound 13],20,70,31,200,81,42,90,85,85,100,84,25,100,80,29,–,–,–,–,–,–
C/C=C1\NC(=O)c2cc(SC)cc(n2)CNC(=O)C[C@@H](/C=C/CCSC=O)OC(=O)[C@H](C(C)C)NC1=O [Compound 169],–,–,55,–,35,62,–,46,61,–,51,37,–,–,29,70,40,60,20,50,"GI50 [13, 29]: 60 nM; GI50 [14, 30]: 20 nM"
C/C=C1\NC(=O)c2nc(ccc2C)CNC(=O)C[C@@H](/C=C/CCSC(C)=O)OC(=O)[C@H](Cc2ccccc2)NC1=O [Compound 66],30,30,61,30,38,25,90,34,38,30,91,37,60,20,34,–,–,–,–,–,–
C/C=C1\NC(=O)c2nc(ccc2F)CNC(=O)C[C@@H](/C=C/CCSC(C)=O)OC(=O)[C@H](C)NC1=O [Example 63],50,90,59,90,49,51,90,94,49,40,93,53,50,30,94,–,–,–,–,–,–
C/C=C1\NC(=O)c2nc(cc(SC)n2)CNC(=O)C[C@@H](/C=C/CCSC(C)=O)OC(=O)[C@H](C(C)C)NC1=O [Compound 216],–,–,–,–,–,–,–,–,–,–,–,–,–,–,–,–,–,–,–,–,"GI50 ([1]; DU145 cells, 72 hours incubation, read-out: GI50 Du1): 20 nM; GI50 ([2]; PANC-1 cells, 72 hours incubation, read-out: GI50 PAN): 20 nM; GI50 [3]: 37 nM; GI50 ([4]; HT1080 cells, 72 hours incubation, read-out: GI50 HT1): 50 nM; GI50 ([5]; read-out: GI50 MDA-MB-231, MTT, 72 hours incubation, MDA-MB-231 cells): 62 nM; GI50 [6]: 38 nM; GI50 ([7]; Hela cells, 72 hours incubation, read-out: GI50 Hela): 70 nM; GI50 [8]: 23 nM; GI50 [9]: 49 nM; GI50 ([10]; lncap cells, 72 hours incubation, read-out: GI50 lnca): 10 nM; GI50 [11]: 38 nM; GI50 [12]: 56 nM; GI50 ([13]; BGC-823 cells, 72 hours incubation, read-out: GI50 BG): 60 nM; GI50 ([14]; U937 cells, 72 hours incubation, read-out: GI50 U93): 80 nM; GI50 [15]: 59 nM"
C/C=C1\NC(=O)c2cc(F)cc(n2)CNC(=O)C[C@@H](/C=C/CCSC(=O)CC)OC(=O)[C@H](C(C)C)NC1=O [Compound 46],30,50,43,50,35,57,90,52,35,30,91,35,40,30,52,–,–,–,–,–,–
C/C=C1\NC(=O)c2nc(ccc2SC)CNC(=O)C[C@@H](/C=C/CCSC=O)OC(=O)[C@H](C(C)C)NC1=O [Compound 168],–,–,94,–,12,34,–,44,56,–,22,34,–,–,35,50,60,130,50,20,"GI50 [13, 29]: 10 nM; GI50 [14, 30]: 40 nM"
C/C=C1\NC(=O)c2nc(ccc2F)CNC(=O)C[C@@H](/C=C/CCSC=O)OC(=O)[C@H](C(C)C)NC1=O [Example 51],40,70,65,70,29,45,80,72,29,20,83,46,60,60,72,–,–,–,–,–,–
C/C=C1\NC(=O)c2nc(ccc2C)CNC(=O)C[C@@H](/C=C/CCSC(=O)CCCCCCC)OC(=O)[C@H](C(C)C)NC1=O [Compound 243],–,–,23,–,93,25,–,35,53,–,93,32,–,–,37,130,520,840,230,470,"GI50 [1, 31]: 130 nM; GI50 [2, 32]: 520 nM; GI50 [4, 33]: 840 nM; GI50 [7, 34]: 230 nM; GI50 [10, 35]: 470 nM; GI50 [13, 29]: 860 nM; GI50 [13, 36]: 860 nM; GI50 [14, 37]: 870 nM; GI50 [14, 30]: 870 nM"
C/C=C1\NC(=O)c2cccc(n2)CNC(=O)C[C@@H](/C=C/CCSC(C)=O)OC(=O)[C@H](C(C)C)NC1=O [Compound 7],10,–,29,20,91,35,40,82,46,–,49,41,30,–,54,–,–,–,–,–,"GI50 [1, 31]: 13 nM; GI50 [2, 32]: 5 nM; GI50 [4, 33]: 27 nM; GI50 [7, 34]: 40 nM; GI50 [10, 35]: 3 nM; GI50 [13, 36]: 31 nM; GI50 [14, 37]: 8 nM"
C/C=C1\NC(=O)c2cc(SC)cc(n2)CNC(=O)C[C@@H](/C=C/CCSC(C)=O)OC(=O)[C@H](CC)NC1=O [Compound 178],–,–,55,–,26,76,–,58,42,–,93,53,–,–,32,20,350,20,60,50,"GI50 [13, 29]: 60 nM; GI50 [14, 30]: 90 nM"
